Reference: PMC10525927, “First Generation of Antioxidant Precursors for Bioisosteric Se-NSAIDs: Design, Synthesis, and In Vitro and In Vivo Anticancer Evaluation” (Antioxidants, 2023)

Assays:
[1] = system: HCT-116 colon cancer cells; assay: MTT cell viability assay, HCT-116; format: cell-based; details: mean ± SD
Description: (§1) The cell lines were purchased from the American Type Culture Collection (ATCC). The cancer cell lines DU-145, PC-3, T-47D, MDA-MB-231, H1299, and A549, and the non-tumorigenic cells (184B5 and BEAS-2B), were maintained in RPMI 1640 medium (Gibco, Alcobendas, Madrid, Spain) supplemented with 10% fetal bovine serum (FBS; Gibco) and 1% antibiotics (10.00 units/mL penicillin and 10.00 mg/mL streptomycin; Gibco). Colon cancer cells HT-29 and HCT-116 were cultured in McCoy’s 5A medium (Gibco) supplemented with 10% fetal bovine serum (FBS; Gibco) and 1% antibiotics (10.00 units/mL penicillin and 10.00 mg/mL streptomycin; Gibco). Cells were maintained in tissue culture flasks at 37 °C and 5% CO2. The culture medium was replaced every three days.
(§2) The antiproliferative activity and selectivity in vitro of the Se-NSAID derivatives were determined by the (3-(4,5-dimethylthiazol-2-yl)-2,5-diphenyltetrazolium bromide) (MTT) assay. Compounds were dissolved in DMSO at a concentration of 0.01 M and serial dilutions were prepared. The Se-NSAID derivatives were tested at seven concentrations ranging between 1 and 100 µM in the colon (HT-29 and HCT-116), prostate (DU-145 and PC-3), breast (MDA-MB-231 and T-47D), and lung (H1299 and A549) cancer cell lines. The non-tumorigenic breast (184B5) and lung (BEAS-2B) cell lines were also tested to assess the selectivity of the compounds following the same procedure. A total of 1 × 10^4 cells were seeded per well in 96-well plates and incubated at 5% CO2 and 37 °C for 24 h. Then, cells were treated with either DMSO or increasing concentrations of the corresponding Se-NSAID derivatives for 48 h. A volume of 20 µL of MTT (5 mg/mL) was added to each well 2.5 h before the termination point. At the end of the experiment, the medium was removed, and the resultant formazan crystals formed by mitochondrial reduction of MTT were dissolved in 50 µL of DMSO. Absorbance was measured at 550 nm. IC50, GI50, TGI, and LC50 values were calculated using OriginPro version 8.5.1. software by nonlinear curve fitting. Selectivity indexes (SI) were calculated as the ratio of the IC50 values determined for the nonmalignant and the tumoral cells in the breast (IC50 (184B5)/IC50 (MDA-MB-231) and IC50 (184B5)/IC50 (T-47D)) and lung (IC50 (BEAS-2B)/IC50 (H1299) and IC50 (BEAS-2B)/IC50 (A549)) cell lines. Data were obtained from at least three independent experiments performed in triplicates.

[2] = system: DU-145 prostate cancer cells; assay: MTT cell viability assay, DU-145; format: cell-based; details: mean ± SD
Description: as §1, §2

[3] = system: H1299 lung cancer cells; assay: MTT cell viability assay, H1299; format: cell-based; details: mean ± SD
Description: as §1, §2

[4] = system: BEAS-2B non-tumorigenic lung (bronchial epithelium) cells; assay: MTT cell viability assay, BEAS-2B; format: cell-based; details: 48 h, mean ± SD; for IC50: nonmalignant lung cells
Description: as §1, §2

[5] = system: HCT-116 cells; assay: Annexin V & Dead Cell apoptosis assay; format: cell-based; details: HCT-116, 24 h
Description: The capacity of the Se-NSAID derivatives to induce apoptosis was analyzed using both a Caspase 3/7 assay kit and Annexin V & Dead Cell assay kit (EMD Millipore, Darmstadt, Germany). HCT-116 cells were seeded in 6-well plates at a density of 5 × 10^5 cells per well. Cells were treated either with DMSO (control) or with different concentrations of compound 5 and incubated for 24 h. At the end of the treatment, cells were collected and treated with the respective dyes according to the manufacturer’s protocol. For the Caspase 3/7 assay, cells were stained with 5 µL of Muse™ Caspase 3/7 working solution and incubated at 37 °C for 30 min. After incubation, […] of Muse™ Caspase 7-AAD working solution was added and the samples were incubated for another 5 min in the dark at room temperature prior to analysis. For Annexin V assay, cells were stained with 100 µL pf Muse™ Annexin V & Dead Cell Reagent and incubated for 20 min at room temperature in the dark. Samples for both assays were analyzed on a Muse™ Cell Analyzer (Merck Millipore, Darmstadt, Germany) using Muse™ version 1.4. software.

[6] = system: HCT-116 colon cancer xenograft; assay: Tumor growth inhibition on HCT-116 colon cancer xenograft model; format: in vivo; details: 10 mg/Kg IP
Description: Female mice of 4–5 weeks of age (The Jackson Laboratory, Bar Harbor, ME, USA) were kept on the daily cycle of 12 h light/dark and received food and water ad libitum throughout the studies. All animal procedures were performed following the National Institutes of Health (NIH) Guide for the Care and Use of Laboratory Animals and protocols were approved by the Animal Care and Use Committee of the Penn State College of Medicine.
All mice were housed in quarantine for one week prior to the inoculation of the cancer cells. Female nude mice (4–5 weeks old) were subcutaneously injected (100 µL of PBS/flank) with 2.5 × 10^6 HCT-116 colon cancer cells in each flank. Two weeks after inoculation, mice were sorted randomly into treatment and control groups (five mice/group) such that the mean tumor volumes were similar between groups. […] Mice that were injected with only DMSO (vehicle) were used as negative controls. The body weight of animals and the tumor volume were monitored thrice weekly. Tumor volumes were calculated using the formula (L × W^2)/2, wherein L and W are the length and width of the tumor mass measured with a vernier caliper, respectively. At the end of the experiment, mice were sacrificed by euthanizing the animals by CO2 asphyxiation, and the tumors were excised and weighed. Inspection of major morphological changes in organs was also carried out. The antitumor effect was assessed by the tumor growth inhibition (TGI) and the relative increment ratio (T/C) parameters in the aspects of tumor volume and tumor weight, respectively. The TGI was calculated using the following formula: TGI (%) = [1 − (T − T0)/(C − C0)] × 100, wherein T and C are the final tumor volumes measured at the end of the treatment of compound-treated mice and vehicle-treated mice, respectively, whereas T0 and C0 are the tumor volumes measured at the beginning of the treatment of compound-treated mice and vehicle-treated mice, respectively. The T/C value was calculated as WT/WC × 100, wherein WT is the mean of tumor weight of the compound-treated mice, and WC is the mean of tumor weight of the vehicle-treated mice.

[7] = in vitro TGI concentration, 48 h, Table S1

SMILES: CC(C)Cc1ccc(C(C)C(=O)[Se][Se]C(=O)C(C)c2ccc(CC(C)C)cc2)cc1 (stereo not drawn) [Compound 5, 2-(4-Isobutylphenyl)propanoic diselenoperoxyanhydride]
- IC50 ([1]; Homo sapiens, HCT-116, 48 h): 9 ± 3 µM
- GI50 ([1]; Homo sapiens, HCT-116, 48 h, Table S1): 4.6 ± 1.5 µM
- TGI HCT-116 [1, 7]: 10.3 ± 3.8 µM
- LD50 DU-145 ([2]; 48 h, Table S1): 9.0 ± 0.4 µM
- IC50 ([2]; Homo sapiens, DU-145, 48 h): 7 ± 1.3 µM
- GI50 ([2]; Homo sapiens, DU-145, 48 h, Table S1): 6 ± 1.3 µM
- TGI DU-145 [2, 7]: 7.3 ± 0.9 µM
- LD50 H1299 ([3]; 48 h, Table S1): 16.5 ± 5.1 µM
- IC50 ([3]; Homo sapiens, NCI-H1299, 48 h): 9.3 ± 0.6 µM
- GI50 ([3]; Homo sapiens, NCI-H1299, 48 h, Table S1): 8.1 ± 1 µM
- TGI H1299 [3, 7]: 10.2 ± 1.0 µM
- LD50 BEAS-2B ([4]; Table S1): 14.8 ± 4.7 µM
- IC50 [4]: 15.9 ± 2.4 µM
- GI50 ([4]; Homo sapiens, BEAS-2B, Table S1): 7.8 ± 2.3 µM
- IC50 ([4]; Homo sapiens, BEAS-2B): 14 to 19 µM
- TGI BEAS-2B ([4]; in vitro TGI concentration, Table S1): 9.8 ± 1.6 µM
- Early Apop. cells ([5]; 15 μM): ~ 23%
- Late Apop./Dead cells ([5]; 15 μM): ~ 13%
- Live cells ([5]; 15 μM): ~ 63%
- Dead cells ([5]; 25 μM): ~ 10%
- Late Apop./Dead cells ([5]; 25 μM): ~ 20%
- Live cells ([5]; 25 μM): ~ 60%
- cells detected to be apoptotic ([5]; 25 μM): more than 30%
- TGI (tumor growth inhibition, tumor volume) ([6]; HCT-116 subcutaneous xenograft, female nude mice, 23 days of treatment, day 38, vs vehicle): 72%
- T/C (relative increment ratio, tumor weight) ([6]; HCT-116 subcutaneous xenograft, female nude mice, end of treatment): 38%
- body weight of the mice vs vehicle during treatment ([6]; HCT-116 xenograft mice): slight change
- toxicity signs (morphological abnormalities in major organs) ([6]; HCT-116 xenograft mice, end of experiment): no evident toxicity signs
